Values after ≈ are worked out from the molar mass of the structure shown.
Tests used:
Mus musculus [1] = assay: Acute toxicity in C57BL/6 mouse assessed as change in kidney to body weight ratio at 25 to 200 mg/kg, po administered every other day for 14 days measured on day 14 post last dose; format: organism-based; conditions: in vivo, 336 h
Mus musculus [2] = assay: Acute toxicity in C57BL/6 mouse assessed as change in heart to body weight ratio at 25 to 200 mg/kg, po administered every other day for 14 days measured on day 14 post last dose; format: organism-based; conditions: in vivo, 336 h
Rattus norvegicus [3] = assay: Apparent volume of distribution in Sprague-Dawley rat at 10 mg/kg, po by LC-MS/MS; format: ADME, organism-based; conditions: in vivo
[4] = Cmax in Sprague-Dawley rat at 10 mg/kg, po by LC-MS/MS; format: ADME, organism-based; design: dose 10 mg/kg, route oral; conditions: in vivo
Rattus norvegicus [5] = assay: AUC (0 to t) in Sprague-Dawley rat at 1 mg/kg, iv by LC-MS/MS; format: ADME, organism-based; conditions: in vivo
Mus musculus [6] = assay: Acute toxicity in C57BL/6 mouse assessed as behavioral abnormality at 25 to 200 mg/kg, po administered every other day for 14 days; format: organism-based; conditions: in vivo, 336 h
Mus musculus [7] = assay: Acute toxicity in C57BL/6 mouse assessed as apparent signs of toxicity at 25 to 200 mg/kg, po administered every other day for 14 days; format: organism-based; conditions: in vivo, 336 h
[8] = Half life in Sprague-Dawley rat at 1 mg/kg, iv by LC-MS/MS; format: ADME, organism-based; conditions: in vivo
L02 = assay: Cytotoxicity against human L02 cells assessed as reduction in cell viability at 10 to 100 uM after 72 hrs by MTT assay; format: cell-based; conditions: l02, 72 h
Mus musculus [9] = assay: Acute toxicity in C57BL/6 mouse assessed as change in lungs to body weight ratio at 25 to 200 mg/kg, po administered every other day for 14 days measured on day 14 post last dose; format: organism-based; conditions: in vivo, 336 h
Mus musculus [10] = assay: Toxicity in C57BL/6 mouse assessed as damage in spleen at 25 to 200 mg/kg, po administered every other day for 14 days measured on day 14 post last dose by H and E staining based assay; format: organism-based; conditions: in vivo, 336 h
[11] = Apparent volume of distribution in Sprague-Dawley rat at 1 mg/kg, iv by LC-MS/MS; format: ADME, organism-based; conditions: in vivo, read-out: Vz
[12] = Lipophilicity, log D of the compound at pH 7.4 by potentiometric titration method; format: physicochemical; conditions: buffer
[13] = Effective permeability of the compound at pH 7.4 by PAMPA; format: ADME; conditions: read-out: Peff
Rattus norvegicus [14] = assay: AUC (0 to infinity) in Sprague-Dawley rat at 1 mg/kg, iv by LC-MS/MS; format: ADME, organism-based; design: dose 1 mg/kg, route intravenous, time infinity; conditions: in vivo
[15] = Oral bioavailability in Sprague-Dawley rat at 10 mg/kg by LC-MS/MS; format: ADME, organism-based; conditions: in vivo
[16] = MRT (0 to infinity) in Sprague-Dawley rat at 10 mg/kg, po by LC-MS/MS; format: ADME, organism-based; conditions: in vivo
Mus musculus [17] = assay: Acute toxicity in C57BL/6 mouse assessed as effect on food intake at 25 to 200 mg/kg, po administered every other day for 14 days measured during compound dosing; format: organism-based; conditions: in vivo, 336 h
Rattus norvegicus [18] = assay: AUC (0 to infinity) in Sprague-Dawley rat at 10 mg/kg, po by LC-MS/MS; format: ADME, organism-based; design: dose 10 mg/kg, time infinity, route oral; conditions: in vivo
Mus musculus [19] = assay: Acute toxicity in C57BL/6 mouse assessed as change in spleen to body weight ratio at 25 to 200 mg/kg, po administered every other day for 14 days measured on day 14 post last dose; format: organism-based; conditions: in vivo, 336 h
Egl nine homolog 1 [20] = molecular target: T1, Egl nine homolog 1 (Homo sapiens, UniProt Q9GZT9)
Mus musculus [21] = assay: Acute toxicity in C57BL/6 mouse assessed as change in liver to body weight ratio at 25 to 200 mg/kg, po administered every other day for 14 days measured on day 14 post last dose; format: organism-based; conditions: in vivo, 336 h
Mus musculus [22] = assay: Antianemic activity in C57BL/6 mouse cisplatin-induced anemia model assessed as increase in hemoglobin level at 10 mg/kg, po administered every other day for 30 days relative to control; format: functional
[23] = Tmax in Sprague-Dawley rat at 10 mg/kg, po by LC-MS/MS; format: ADME, organism-based; conditions: in vivo
Mus musculus [24] = assay: Upregulation of plasma EPO level in C57BL/6 mouse assessed as EPO level at 50 mg/kg, po after 4 hrs by ELISA; format: functional
[25] = Therapeutic index, ratio of compound effect for toxicity in C57BL/6 mouse to compound effect for upregulation of plasma EPO level in C57BL/6 mouse; format: organism-based; conditions: read-out: TI
Mus musculus [26] = assay: Acute toxicity in C57BL/6 mouse assessed as increase in body weight at 25 to 200 mg/kg, po administered every other day for 14 days measured during compound dosing; format: organism-based; conditions: in vivo, 336 h
HUVEC = assay: Cytotoxicity against HUVEC assessed as reduction in cell viability at 10 to 100 uM after 72 hrs by MTT assay; format: cell-based; conditions: human
Mus musculus [27] = assay: Toxicity in C57BL/6 mouse assessed as damage in lungs at 25 to 200 mg/kg, po administered every other day for 14 days measured on day 14 post last dose by H and E staining based assay; format: organism-based; conditions: in vivo, 336 h
[28] = Clearance in Sprague-Dawley rat at 10 mg/kg, po by LC-MS/MS; format: ADME, organism-based; conditions: in vivo
Mus musculus [29] = assay: Nephrotoxicity in C57BL/6 mouse at 25 to 200 mg/kg, po administered every other day for 14 days measured on day 14 post last dose by H and E staining based assay; format: toxicity, organism-based; conditions: in vivo, 336 h
Egl nine homolog 1 [30] = molecular target: T1, Egl nine homolog 1; remark: listed apart in the source
[31] = Half life in Sprague-Dawley rat at 10 mg/kg, po by LC-MS/MS; format: ADME, organism-based; conditions: in vivo
Mus musculus [32] = assay: Hepatotoxicity in C57BL/6 mouse at 25 to 200 mg/kg, po administered every other day for 14 days measured on day 14 post last dose by H and E staining based assay; format: toxicity, organism-based; conditions: in vivo, 336 h
Mus musculus [33] = assay: Antianemic activity in C57BL/6 mouse cisplatin-induced anemia model assessed as increase in hemoglobin level at 25 mg/kg, po administered every other day for 30 days relative to control; format: functional
HEK293 = assay: Cytotoxicity against HEK293 cells assessed as reduction in cell viability at 10 to 100 uM after 72 hrs by MTT assay; format: cell-based; conditions: human, hek293, 72 h
Mus musculus [34] = assay: Cardiotoxicity in C57BL/6 mouse at 25 to 200 mg/kg, po administered every other day for 14 days measured on day 14 post last dose by H and E staining based assay; format: toxicity, organism-based; conditions: in vivo, 336 h
[35] = MRT (0 to infinity) in Sprague-Dawley rat at 1 mg/kg, iv by LC-MS/MS; format: ADME, organism-based; conditions: in vivo
Rattus norvegicus [36] = assay: AUC (0 to t) in Sprague-Dawley rat at 10 mg/kg, po by LC-MS/MS; format: ADME, organism-based; conditions: in vivo
[37] = Clearance in Sprague-Dawley rat at 1 mg/kg, iv by LC-MS/MS; format: ADME, organism-based; conditions: in vivo
Hep 3B2 = assay: Cytotoxicity against human Hep3B cells assessed as reduction in cell viability at 10 to 100 uM after 72 hrs by MTT assay; format: cell-based; conditions: hep 3b2, 72 h
[38] = Dissociation constant, pKa of the compound by potentiometric titration method; format: physicochemical
[39] = Intrinsic aqueous solubility of the compound at pH 7.4 by potentiometric titration method; format: physicochemical; conditions: buffer
Mus musculus [40] = assay: Acute toxicity in C57BL/6 mouse assessed as effect on growth at 25 to 200 mg/kg, po administered every other day for 14 days; format: organism-based; conditions: in vivo, 336 h

T1 sequence (Q9GZT9 whole entry): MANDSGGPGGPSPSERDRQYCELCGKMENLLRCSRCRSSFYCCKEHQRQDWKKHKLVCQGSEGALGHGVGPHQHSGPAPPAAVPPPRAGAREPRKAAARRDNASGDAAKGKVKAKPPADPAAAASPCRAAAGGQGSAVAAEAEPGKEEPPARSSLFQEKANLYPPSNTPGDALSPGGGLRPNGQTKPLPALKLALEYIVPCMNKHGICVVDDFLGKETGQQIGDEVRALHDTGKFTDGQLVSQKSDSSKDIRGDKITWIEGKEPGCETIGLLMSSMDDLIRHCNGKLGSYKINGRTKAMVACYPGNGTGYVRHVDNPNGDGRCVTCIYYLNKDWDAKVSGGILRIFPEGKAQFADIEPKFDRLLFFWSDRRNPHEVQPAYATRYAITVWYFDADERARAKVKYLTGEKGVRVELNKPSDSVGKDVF

O=C(O)CNC(=O)c1ncc(-c2cn(CCCc3ccc(Cl)cc3)nn2)cc1O
Activity (Mus musculus [1]): Non-Toxic | Activity (Mus musculus [2]): Non-Toxic | Vz (Rattus norvegicus [3]): 8634 mL/kg | Cmax [4]: 1550 ng/mL | AUCt (Rattus norvegicus [5]): 923 ng·h/mL | Activity (Mus musculus [6]): Non-Toxic | Activity (Mus musculus [7]): Non-Toxic | half-life [8]: 90.4 min | Activity (L02): Non-Toxic | Activity (Mus musculus [9]): Non-Toxic | Activity (Mus musculus [10]): Non-Toxic | Vd [11]: 2.31 L/kg | logD [12]: 2.13 | Papp [13]: 11.5 ×10⁻⁶ cm/s | AUC (Rattus norvegicus [14]): 933 ng·h/mL | bioavailability [15]: 54.1% | MRT inf [16]: 3.28 h | Activity (Mus musculus [17]): Non-Toxic | AUC (Rattus norvegicus [18]): 5440 ng·h/mL | Activity (Mus musculus [19]): Non-Toxic | IC50 (Egl nine homolog 1 [20]): 62.2 nM | Activity (Mus musculus [21]): Non-Toxic | Activity (Mus musculus [22]): 61.9% | Tmax [23]: 55 min | Activity (Mus musculus [24]): 1300 pg/mL | selectivity ratio [25]: 10 | Activity (Mus musculus [26]): Toxic | Activity (HUVEC): Non-Toxic | Activity (Mus musculus [27]): Non-Toxic | CL/F [28]: 31.2 mL/min/kg | Activity (Mus musculus [29]): Non-Toxic | IC50 (Egl nine homolog 1 [30]): 1310 nM | half-life [31]: 184 min | Activity (Mus musculus [32]): Non-Toxic | Activity (Mus musculus [33]): 96.7% | Activity (HEK293): Non-Toxic | Activity (Mus musculus [34]): Non-Toxic | MRT inf [35]: 37.4 min | AUCt (Rattus norvegicus [36]): 4990 ng·h/mL | clearance [37]: 19.4 mL/min/kg | Activity (Hep 3B2): Non-Toxic | pKa [38]: 3.21 | solubility [39]: 1180 µg/mL (≈ 2850 µM) | Activity (Mus musculus [40]): Non-Toxic

O=C(O)CNC(=O)c1ncc(-c2cn(CCc3ccc(Cl)cc3)nn2)cc1O
Activity (L02): Non-Toxic | Activity (HUVEC): Non-Toxic | Activity (HEK293): Non-Toxic | Activity (Hep 3B2): Non-Toxic

Cc1nc(C(=O)NCC(=O)O)c(O)c2ccc(Oc3ccccc3)cc12 [ROXADUSTAT]
Activity (L02): Non-Toxic | logD [12]: 3.77 | Papp [13]: 12.7 ×10⁻⁶ cm/s | Activity (Mus musculus [22]): 67.7% | Activity (HUVEC): Non-Toxic | Activity (Mus musculus [33]): 92.5% | Activity (HEK293): Non-Toxic | Activity (Hep 3B2): Non-Toxic | pKa [38]: 3.15 | solubility [39]: 255 µg/mL (≈ 725 µM)

Reference: ChEMBL document CHEMBL4118236, “Click Chemistry-Based Discovery of [3-Hydroxy-5-(1 H-1,2,3-triazol-4-yl)picolinoyl]glycines as Orally Active Hypoxia-Inducing Factor Prolyl Hydroxylase Inhibitors with Favorable Safety Profiles for the Treatment of Anemia” (J Med Chem, 2018)
